# According to paper PMC9019904, “AD Informer Set: Chemical tools to facilitate Alzheimer's disease drug discovery” (Alzheimer's & Dementia : Translational Research & Clinical …, 2022):
# What was measured:
# [1] = system: HMC3 (human microglia) cell line; assay: pHrodo-myelin phagocytosis/cell viability high content imaging assay: viability (cell count, nuclear area, nuclear intensity); settings: 48 hours treatment
# Summary of the method: (§1)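 Viability was read as total cell count per well by high-content imaging, with mean average nuclear intensity per cell profiling apoptosis (rise early, fall late). Compounds were given at 10 μM for 48 h, pHrodo-myelin being added for the final 20 h. Values are means of two points as % untreated control.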
# [2] = system: BV2 (mouse microglia) cell line; assay: as above; settings: 48 hours treatment
# Summary of the method: as §1
# [3] = system: HMC3 (human microglia) cell line; assay: pHrodo-myelin phagocytosis/cell viability high content imaging assay: phagocytosis signal; type: cell-based
# Summary of the method: (§2)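 Simultaneous phagocytosis/viability imaging at approximately 22 h after adding pHrodo-myelin. Rising intensity flagged early apoptosis and falling intensity later apoptosis.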
# [4] = system: BV2 (mouse microglia) cell line; assay: as above; type: cell-based
# Summary of the method: as §2
# [5] = HMC3 cells, 10 uM compound, 48 hours treatment, pHrodo-myelin final 20 hours
# [6] = BV2 cells, 10 uM compound, 48 hours treatment, pHrodo-myelin final 20 hours
# [7] = HMC3, compound 10 uM, pHrodo-myelin
# [8] = BV2, compound 10 uM, pHrodo-myelin
Structure (SMILES),"1. Cell count (% control) ([1]; HMC3 cells, 10 uM compound)","2. Nuclear Area (% Control) ([1]; HMC3 cells, 10 uM compound)","3. Nuclear DNA Intensity (% control) ([1]; HMC3 cells, 10 uM compound)","1. Cell count (% control) ([2]; BV2 cells, 10 uM compound)","2. Nuclear Area (% Control) ([2]; BV2 cells, 10 uM compound)","3. Nuclear DNA Intensity (% control) ([2]; BV2 cells, 10 uM compound)","4. Phagocytosis (% control) [3, 5]","4. Phagocytosis (% control) [4, 6]","1. Cell count (% control) ([1]; HMC3, compound 10 uM)","2. Nuclear Area (% Control) ([1]; HMC3, compound 10 uM)","3. Nuclear DNA Intensity (% control) ([1]; HMC3, compound 10 uM)","1. Cell count (% control) ([2]; BV2, compound 10 uM)","2. Nuclear Area (% Control) ([2]; BV2, compound 10 uM)","3. Nuclear DNA Intensity (% control) ([2]; BV2, compound 10 uM)","4. Phagocytosis (% control) [3, 7]","4. Phagocytosis (% control) [4, 8]"
CNC(=O)[C@H](Cc1c[nH]c2ccccc12)NC(=O)[C@@H](CC(=O)NO)CC(C)C [UNC10302858A],86.0 % control,95.1 % Control,101.4 % control,101.6 % control,102.8 % Control,98.5 % control,82.4 % control,100.0 % control,–,–,–,–,–,–,–,–
CCN(C)C(=O)Oc1cccc([C@H](C)N(C)C)c1 [UNC10303091A],141.4 % control,98.9 % Control,95.5 % control,139.1 % control,103.4 % Control,100.1 % control,80.4 % control,166.0 % control,–,–,–,–,–,–,–,–
O=C(Nc1ccc2[nH]nc(-c3ccncc3)c2c1)[C@@H]1CCN(CC(=O)N2CCN(c3ccc(-c4ncccn4)cc3)CC2)C1 [UNC10302854A],103.4 % control,110.6 % Control,94.1 % control,43.5 % control,114.7 % Control,111.9 % control,37.1 % control,359.5 % control,–,–,–,–,–,–,–,–
CCCC[C@@H](C=O)NC(=O)[C@H](CC(C)C)NC(=O)OCc1ccccc1 [UNC10302674A],146.0 % control,103.5 % Control,93.8 % control,102.6 % control,106.4 % Control,106.3 % control,69.0 % control,195.1 % control,–,–,–,–,–,–,–,–
CN(C)CCCN1c2ccccc2Sc2ccc(Cl)cc21.Cl [UNC10100309D],119.8 % control,102.8 % Control,91.9 % control,82.7 % control,103.4 % Control,99.3 % control,88.5 % control,128.7 % control,–,–,–,–,–,–,–,–
O=c1ccc2c(OCCCCc3ccccc3)c3ccoc3cc2o1 [UNC10100197A],–,–,–,–,–,–,–,–,124.6 % control,99.9 % Control,93.8 % control,106.2 % control,106.9 % Control,106.7 % control,60.7 % control,195.3 % control
C=CC[N+]1(C2CC3C4CCC5CC(O)C(N6CCOCC6)CC5(C)C4CCC3(C)C2OC(C)=O)CCCC1.[Br-] (stereo not shown) [UNC10302696A],–,–,–,–,–,–,–,–,145.5 % control,103.7 % Control,86.9 % control,144.5 % control,102.9 % Control,102.4 % control,62.6 % control,148.6 % control
c1ccc(CNc2nc(NCc3ccccc3)c3ccccc3n2)cc1 [UNC10302879A],28.2 % control,43.8 % Control,179.2 % control,27.3 % control,94.3 % Control,65.0 % control,0.0516 % control,0.00106 % control,–,–,–,–,–,–,–,–
C=Cc1c(C)c2cc3nc(cc4[nH]c(cc5nc(cc1[nH]2)C(C)=C5CCC(=O)O)c(CCC(=O)OC)c4C)[C@@]1(C)C3=CC=C(C(=O)OC)[C@H]1C(=O)OC [UNC10303159A],–,–,–,–,–,–,–,–,113.8 % control,131.2 % Control,126.0 % control,114.7 % control,121.1 % Control,113.2 % control,5.8 % control,174.1 % control
CC1(C)CCC(CN2CCN(c3ccc(C(=O)NS(=O)(=O)c4ccc(NCC5CCOCC5)c([N+](=O)[O-])c4)c(Oc4cnc5[nH]ccc5c4)c3)CC2)=C(c2ccc(Cl)cc2)C1 [UNC10302836A],–,–,–,–,–,–,–,–,133.1 % control,98.6 % Control,97.8 % control,115.0 % control,107.1 % Control,100.7 % control,79.7 % control,211.1 % control
C=CC(=O)Nc1cc2c(Nc3ccc(F)c(Cl)c3)ncnc2cc1OCCCN1CCOCC1.Cl.Cl [UNC10126563B],45.6 % control,65.0 % Control,201.5 % control,25.9 % control,92.7 % Control,52.1 % control,0.263 % control,4.1 % control,–,–,–,–,–,–,–,–
